Results as given in patent US12036221B2, “Ketamine or dextromethorphan formulations and methods of use” (West Virginia University, priority 2014, dated 2024).

Key:
[1] = system: depression; conditions: cited from earlier work
[2] = forced swim test (preclinical); format: in vivo; conditions: preclinical studies
[3] = system: sigma receptors; conditions: cited from earlier work
[4] = system: treatment resistant patients; assay: off-label use of transbuccal ketamine in treatment resistant patients (day-hospital, preliminary data)
[5] = system: NMDA receptors; conditions: cited from earlier work
[6] = in vivo; cited from earlier work

| Structure (SMILES) | duration of antidepressant effects ([1]; in vivo) | onset of antidepressant effects after administration ([1]; off-label use) [h] | onset of rapid acting antidepressant effects ([1]; sub-anesthetic doses) | immobility time in the forced swim test [2] | affinity for sigma receptors [3] | onset of antidepressant effects ([4]; 0.5 mg/kg liquid ketamine held in the mouth (transbuccal), patient report and clinician observation) [h] | side effects ([4]; 0.5 mg/kg liquid ketamine, transbuccal / oral mucosa absorption) | affinity for NMDA receptors [5] | metabolism in the body [6] |
| --- | --- | --- | --- | --- | --- | --- | --- | --- | --- |
| CNC1(c2ccccc2Cl)CCCCC1=O (stereo not drawn) [ketamine] | up to two | ≤ 24 | two | dose dependently reduces immobility time | significant affinity | ≤ 24 | No side effects (except for a transient, mild headache and slight dizziness in one patient each soon after administration) |  |  |
| COc1ccc2c(c1)[C@]13CCCC[C@@H]1[C@H](C2)N(C)CC3 [DM, dextromethorphan] |  |  |  | dose dependently reduces immobility time | significant affinity |  |  | moderate affinity | rapidly metabolized in the body to dextrorphan |
| CN(C)CCCN1c2ccccc2CCc2ccccc21 [imipramine] |  |  |  | dose dependently reduces immobility time |  |  |  |  |  |
